The text below walks through data of patent EP0116944B1 (priority 1983, dated 1984).

Like-named read-outs stand apart in the source and are kept apart here.

A short description of data set [1]: in vivo. Particulars: dog, iv.
For data set [2], the system named is Vasopressin-induzierten Koronarspasmen. Also on record: species or system Ratten. The note with it: in vivo; for Dauer der antianginösen Wirkung gegenüber Vasopressin: po.
Data set [3] deals with ST-Wellensenkung. The note with it: cited from earlier work.
Data set [4] deals with systolischen Blutdruck. Also on record: species or system Hunde. Particulars: in vivo.
For data set [5] the following is noted: intraduodenal, Ratten; cited from earlier work.
The test system of data set [6] is hypotensive Wirkung. Particulars: in vivo.
The subject of data set [7] is Hypotensivum. The note with it: orale Verabreichung; cited from earlier work.
Data set [8] deals with Blutdruck anästhesierter Ratten. The note with it: in vivo.

Consider `O=[N+]([O-])OC(CO)CO` [2-GN, Glycerin-2-nitrat], for which the half-life in data set [1] was 2.1 h. For the same compound, the “Dauer der antianginösen Wirkung gegenüber Vasopressin” value in data set [2] was in the range of 2 to 3 h.

As for `OCCN(CCO)c1nc(N2CCCCC2)c2nc(N(CCO)CCO)nc(N3CCCCC3)c2n1` [Dipyridamol], the “Hemmung der ST-Wellensenkung” value in data set [3] (in vivo) is on record as “unwirksam”.

Take `O=[N+]([O-])OCC(CO[N+](=O)[O-])O[N+](=O)[O-]` [GTN, Glycerintrinitrat]: in data set [4], the “Beginn der Wirkung” value is reported as 0,4 min and the “Einfluß auf den systolischen Blutdruck” value was “senkten”. In data set [5], the “Zeit, nach der kein weiterer Plasmawert der Ausgangssubstanz gemessen werden konnte” value is recorded as at most 5 min. Besides, the “hypotensive Wirkung nach Vorbehandlung mit DHE” value in data set [6] is recorded as “herabgesetzt”. In addition, the “Hemmung der ST-Wellensenkung” value in data set [3] (in vivo) is “hemmte”. Also, in data set [2], the “Hemmung der T-Wellenerhöhung / Vasopressin-induzierten Koronarspasmen” value was “entschieden den stärksten Einfluß” and the “Dauer der antianginösen Wirkung gegenüber Vasopressin” value is 2 to 3 h. In addition, the “Wirksamkeit als Hypotensivum” value in data set [7] was “inaktiv”. For the same compound, in data set [8], the “Dauer der hypotensiven Wirkung” value is 14 min.

With `O=[N+]([O-])O[C@H]1CO[C@H]2[C@@H]1OC[C@H]2O[N+](=O)[O-]` [ISDN, Isosorbid-dinitrat], the “Hemmung der ST-Wellensenkung” value in data set [3] (oral, Ratten) is reported as “hemmten”.

As a reminder, the half-life is how long it takes for the measured level to halve. A high value points to slow loss.
